Reference: ChEMBL document CHEMBL3045303, “An efficient, solvent-free microwave-assisted synthesis and antimicrobial screening of 1,6-dihydropyrimidine analogues” (2012)
≈ marks a conversion by molar mass, not a printed value.

Tests used:
Type in all cases: functional
Aspergillus clavatus = assay: Antimicrobial activity against Aspergillus clavatus MTCC 1323 after 72 hr by serial broth dilution method; conditions: MTCC 1323, 72 h
Aspergillus niger = assay: Antimicrobial activity against Aspergillus niger MTCC 282 after 72 hr by serial broth dilution method; conditions: MTCC 282, 72 h
Pseudomonas aeruginosa = assay: Antimicrobial activity against Pseudomonas aeruginosa MTCC 1688 after 24 hr by serial broth dilution method; conditions: MTCC 1688, 24 h
Candida albicans = assay: Antimicrobial activity against Candida albicans MTCC 227 after 72 hr by serial broth dilution method; conditions: MTCC 227, 72 h
Escherichia coli = assay: Antimicrobial activity against Escherichia coli MTCC 443 after 24 hr by serial broth dilution method; conditions: MTCC 443, 24 h
Staphylococcus aureus = assay: Antimicrobial activity against Staphylococcus aureus MTCC 96 after 24 hr by serial broth dilution method; conditions: MTCC 96, 24 h
Streptococcus pyogenes = assay: Antimicrobial activity against Streptococcus pyogenes MTCC 442 after 24 hr by serial broth dilution method; conditions: MTCC 442, 24 h

SMILES | MIC (Aspergillus clavatus) | MIC (Aspergillus niger) | MIC (Pseudomonas aeruginosa) | MIC (Candida albicans) | MIC (Escherichia coli) | MIC (Staphylococcus aureus) | MIC (Streptococcus pyogenes)
N#CCCCSC1=NC(c2ccc(N)cc2)=CC(c2ccc(Cl)cc2)N1 (configuration not stated) | 100 µg/mL (≈ 261 µM) | 500 µg/mL (≈ 1310 µM) | 100 µg/mL (≈ 261 µM) | 1000 µg/mL (≈ 2610 µM) | 100 µg/mL (≈ 261 µM) | 500 µg/mL (≈ 1310 µM) | 100 µg/mL (≈ 261 µM)
N#CCCCSC1=NC(c2ccc(N)cc2)=CC(c2ccc(O)cc2)N1 (configuration not stated) | 200 µg/mL (≈ 549 µM) | 500 µg/mL (≈ 1370 µM) | 1000 µg/mL (≈ 2740 µM) | 500 µg/mL (≈ 1370 µM) | 25 µg/mL (≈ 68.6 µM) | 500 µg/mL (≈ 1370 µM) | 50 µg/mL (≈ 137 µM)
COc1ccc(C2C=C(c3ccc(N)cc3)N=C(S)N2)cc1 (configuration not stated) | – | – | 250 µg/mL (≈ 803 µM) | – | – | – | –
COc1cc(C2C=C(c3ccc(N)cc3)N=C(SCCCC#N)N2)ccc1O (configuration not stated) | 100 µg/mL (≈ 253 µM) | 100 µg/mL (≈ 253 µM) | 100 µg/mL (≈ 253 µM) | 100 µg/mL (≈ 253 µM) | 25 µg/mL (≈ 63.4 µM) | 250 µg/mL (≈ 634 µM) | 100 µg/mL (≈ 253 µM)
Nc1ccc(C2=CC(c3ccccc3)NC(S)=N2)cc1 (configuration not stated) | – | – | 250 µg/mL (≈ 888 µM) | – | – | – | –
N#CCCCSC1=NC(c2ccc(N)cc2)=CC(c2ccc([N+](=O)[O-])cc2)N1 (configuration not stated) | 200 µg/mL (≈ 508 µM) | 50 µg/mL (≈ 127 µM) | 100 µg/mL (≈ 254 µM) | 500 µg/mL (≈ 1270 µM) | 500 µg/mL (≈ 1270 µM) | 500 µg/mL (≈ 1270 µM) | 500 µg/mL (≈ 1270 µM)
CC1(C)S[C@@H]2[C@H](NC(=O)[C@H](N)c3ccccc3)C(=O)N2[C@H]1C(=O)O [AMPICILLIN] | – | – | 100 µg/mL (≈ 286 µM) | – | 100 µg/mL (≈ 286 µM) | 250 µg/mL (≈ 715 µM) | 100 µg/mL (≈ 286 µM)
N#CCCCSC1=NC(c2ccc(N)cc2)=CC(c2cccc(O)c2)N1 (configuration not stated) | 500 µg/mL (≈ 1370 µM) | 500 µg/mL (≈ 1370 µM) | 500 µg/mL (≈ 1370 µM) | 50 µg/mL (≈ 137 µM) | 500 µg/mL (≈ 1370 µM) | 250 µg/mL (≈ 686 µM) | 200 µg/mL (≈ 549 µM)
CN(C)c1ccc(C2C=C(c3ccc(N)cc3)N=C(SCCCC#N)N2)cc1 (configuration not stated) | 1000 µg/mL (≈ 2550 µM) | 500 µg/mL (≈ 1280 µM) | 250 µg/mL (≈ 638 µM) | 1000 µg/mL (≈ 2550 µM) | 500 µg/mL (≈ 1280 µM) | 250 µg/mL (≈ 638 µM) | 1000 µg/mL (≈ 2550 µM)
COc1ccc(C2C=C(c3ccc(N)cc3)N=C(SCCCC#N)N2)cc1 (configuration not stated) | 50 µg/mL (≈ 132 µM) | 200 µg/mL (≈ 528 µM) | 25 µg/mL (≈ 66.1 µM) | 500 µg/mL (≈ 1320 µM) | 100 µg/mL (≈ 264 µM) | 100 µg/mL (≈ 264 µM) | 500 µg/mL (≈ 1320 µM)
Cc1cccc(C2C=C(c3ccc(N)cc3)N=C(SCCCC#N)N2)c1 (configuration not stated) | 1000 µg/mL (≈ 2760 µM) | 500 µg/mL (≈ 1380 µM) | 500 µg/mL (≈ 1380 µM) | 1000 µg/mL (≈ 2760 µM) | 1000 µg/mL (≈ 2760 µM) | 1000 µg/mL (≈ 2760 µM) | 500 µg/mL (≈ 1380 µM)

Now from value to molecule:

MIC (Aspergillus clavatus) | MIC (Aspergillus niger) | MIC (Pseudomonas aeruginosa) | MIC (Candida albicans) | MIC (Escherichia coli) | MIC (Staphylococcus aureus) | MIC (Streptococcus pyogenes) | SMILES
– | – | – | – | 250 µg/mL (≈ 764 µM) | – | 250 µg/mL (≈ 764 µM) | COc1cc(C2C=C(c3ccc(N)cc3)N=C(S)N2)ccc1O (configuration not stated)
100 µg/mL (≈ 276 µM) | 50 µg/mL (≈ 138 µM) | 500 µg/mL (≈ 1380 µM) | 1000 µg/mL (≈ 2760 µM) | 100 µg/mL (≈ 276 µM) | 50 µg/mL (≈ 138 µM) | 500 µg/mL (≈ 1380 µM) | Cc1ccc(C2C=C(c3ccc(N)cc3)N=C(SCCCC#N)N2)cc1 (configuration not stated)
– | – | – | – | 250 µg/mL (≈ 841 µM) | – | 250 µg/mL (≈ 841 µM) | Nc1ccc(C2=CC(c3ccc(O)cc3)NC(S)=N2)cc1 (configuration not stated)
1000 µg/mL (≈ 2870 µM) | 100 µg/mL (≈ 287 µM) | 50 µg/mL (≈ 143 µM) | 1000 µg/mL (≈ 2870 µM) | 500 µg/mL (≈ 1430 µM) | 500 µg/mL (≈ 1430 µM) | 1000 µg/mL (≈ 2870 µM) | N#CCCCSC1=NC(c2ccc(N)cc2)=CC(c2ccccc2)N1 (configuration not stated)
1000 µg/mL (≈ 2760 µM) | 500 µg/mL (≈ 1380 µM) | 250 µg/mL (≈ 690 µM) | 1000 µg/mL (≈ 2760 µM) | 500 µg/mL (≈ 1380 µM) | 1000 µg/mL (≈ 2760 µM) | 1000 µg/mL (≈ 2760 µM) | Cc1ccccc1C1C=C(c2ccc(N)cc2)N=C(SCCCC#N)N1 (configuration not stated)
100 µg/mL (≈ 283 µM) | 100 µg/mL (≈ 283 µM) | – | 500 µg/mL (≈ 1420 µM) | – | – | – | COC1=CC(=O)C[C@@H](C)[C@]12Oc1c(Cl)c(OC)cc(OC)c1C2=O [GRISEOFULVIN]
500 µg/mL (≈ 1370 µM) | 100 µg/mL (≈ 274 µM) | 250 µg/mL (≈ 686 µM) | 200 µg/mL (≈ 549 µM) | 50 µg/mL (≈ 137 µM) | 250 µg/mL (≈ 686 µM) | 100 µg/mL (≈ 274 µM) | N#CCCCSC1=NC(c2ccc(N)cc2)=CC(c2ccccc2O)N1 (configuration not stated)
